Here are results for six compounds from paper PMC12667198, “Menthol‐like cooling compounds, including (R)‐(‐)‐carvone, inhibit the human bitter taste receptors for saccharin and acesulfame K” (FEBS Open Bio, 2025).

One may read the IC50 as the concentration at which inhibition is half-maximal.

For the test, the target named is T1, TAS2R31 (Homo sapiens, UniProt P59538).
T1 construct: pEAK10; transient in HEK293T with chimeric G protein Galpha16gust44 (and mt-apoclytin II reporter)
T1 sequence (P59538 1-309): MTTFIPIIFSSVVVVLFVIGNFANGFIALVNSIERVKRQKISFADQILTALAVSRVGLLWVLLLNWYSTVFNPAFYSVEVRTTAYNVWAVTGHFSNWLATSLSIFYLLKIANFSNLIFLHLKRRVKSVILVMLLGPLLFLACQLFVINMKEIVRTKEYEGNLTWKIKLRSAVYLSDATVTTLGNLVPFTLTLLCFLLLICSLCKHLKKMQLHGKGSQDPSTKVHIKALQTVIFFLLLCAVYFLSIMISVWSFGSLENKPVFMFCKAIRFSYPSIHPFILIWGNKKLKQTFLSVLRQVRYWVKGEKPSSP
As to the kind of experiment: luminescence (mt-apoclytin II) Ca2+ assay, HEK293T. The class given is cell-based.
Compound `CC(C)=C1CC[C@@H](C)CC1=O` [(+)‐pulegone] returned an IC50 of 290 ± 47 µM. In turn, `CC(C)[C@H]1CC[C@H](C)C[C@@H]1O` [(+)‐menthol] came in with an IC50 of 220 ± 15 µM. With `CC(C)[C@@H]1CC[C@@H](C)C[C@H]1O` [(−)‐menthol] the figure was 310 ± 58 µM; with `CC1=CC(=O)[C@@H](C(C)C)CC1` [(R)‐(‐)‐piperitone], 180 ± 19 µM; with `C=C(C)[C@@H]1CC=C(C)C(=O)C1` [(R)‐(‐)‐carvone], 86 µM.

Regarding `CC(C)[C@@H]1CC[C@@H](C)CC1=O` [menthone], half-maximal inhibition (IC50) required 570 ± 100 µM.
